Results published in ChEMBL document CHEMBL1250441, “Antitumor agents 273. Design and synthesis of N-alkyl-thiocolchicinoids as potential antitumor agents” (Bioorg Med Chem Lett, 2010).
pIC50: −log10 of the molar value. In brackets after ≈: the same amount, converted by molar mass.

Experiments:
SK-BR-3 [1] = assay: Cytotoxicity against human SKBR3 cells after 2 days; assay type: functional; conditions: SK-BR-3, 48 h, read-out: ED50 (the source's name)
DU-145 [2] = assay: Cytotoxicity against human DU145 cells after 2 days; assay type: functional; conditions: DU-145, 48 h, read-out: ED50 (the source's name)
[3] = Inhibition of tubulin assembly
A549 [4] = assay: Cytotoxicity against human A549 cells after 2 days; assay type: functional; conditions: A549, 48 h, read-out: ED50 (the source's name)
KB = assay: Cytotoxicity against human KB cells after 2 days; assay type: functional; conditions: 48 h, read-out: ED50 (the source's name)
[5] = Cytotoxicity against human KBVIN cells expressing p-glycoprotein after 2 days; assay type: functional; conditions: 48 h, read-out: ED50 (the source's name)
HCT-8 [6] = assay: Cytotoxicity against human HCT8 cells after 2 days; assay type: functional; conditions: HCT-8, 48 h, read-out: ED50 (the source's name)
SK-BR-3 [7] = assay: Selectivity ratio of ED50 for human SKBR3 cells to ED50 for human KBVIN cells; assay type: functional
A549 [8] = assay: Selectivity ratio of ED50 for human HCT8 cells to ED50 for human A549 cells; assay type: functional
A549 [9] = assay: Selectivity ratio of ED50 for human SKBR3 cells to ED50 for human A549 cells; assay type: functional
SK-BR-3 [10] = assay: Selectivity ratio of ED50 for human SKBR3 cells to ED50 for human KB cells; assay type: functional
SK-BR-3 [11] = assay: Selectivity ratio of ED50 for human SKBR3 cells to ED50 for human DU145 cells; assay type: functional
HCT-8 [12] = assay: Selectivity ratio of ED50 for human HCT8 cells to ED50 for human KB cells; assay type: functional
[13] = Selectivity ratio of ED50 for human HCT8 cells to ED50 for human KBVIN cells; assay type: functional
DU-145 [14] = assay: Selectivity ratio of ED50 for human HCT8 cells to ED50 for human DU145 cells; assay type: functional
[15] = Solubility of the compound in water; assay type: physicochemical; conditions: buffer

## CCN[C@H]1CCc2cc(OC)c(OC)c(OC)c2-c2ccc(SC)c(=O)cc21
SK-BR-3 [1]
  EC50: 0.0141 mg/L (≈ 0.0351 µM)
DU-145 [2]
  EC50: 0.0138 mg/L (≈ 0.0344 µM)
[3]
  pIC50: 5.27
A549 [4]
  EC50: 0.0193 mg/L (≈ 0.0481 µM)
KB
  EC50: 0.02 mg/L (≈ 0.0498 µM)
[5]
  EC50: 0.0146 mg/L (≈ 0.0364 µM)
HCT-8 [6]
  EC50: 0.031 mg/L (≈ 0.0772 µM)

## COc1cc2c(c(OC)c1OC)-c1ccc(SC)c(=O)cc1[C@@H](N(C)C)CC2.O=C(O)CCC(=O)O
SK-BR-3 [1]
  EC50: 0.0129 mg/L
SK-BR-3 [7]
  Ratio ED50: 10
DU-145 [2]
  EC50: 0.124 mg/L
[3]
  pIC50: 5.44
A549 [8]
  Ratio ED50: 10
A549 [4]
  EC50: 0.19 mg/L
KB
  EC50: 0.12 mg/L
A549 [9]
  Ratio ED50: 10
SK-BR-3 [10]
  Ratio ED50: 10
SK-BR-3 [11]
  Ratio ED50: 10
HCT-8 [12]
  Ratio ED50: 10
[5]
  EC50: 0.125 mg/L
[13]
  Ratio ED50: 10
DU-145 [14]
  Ratio ED50: 10
[15]
  solubility: 103 mg/mL
HCT-8 [6]
  EC50: 0.022 mg/L

## CCN(CC)[C@H]1CCc2cc(OC)c(OC)c(OC)c2-c2ccc(SC)c(=O)cc21.O=C(O)CCC(=O)O
SK-BR-3 [1]
  EC50: 0.136 mg/L
DU-145 [2]
  EC50: 0.125 mg/L
[3]
  pIC50: 4.80
A549 [4]
  EC50: 0.181 mg/L
KB
  EC50: 0.063 mg/L
[5]
  EC50: 0.151 mg/L
[15]
  solubility: 107 mg/mL
HCT-8 [6]
  EC50: 0.11 mg/L

## COc1cc2c(c(OC)c1OC)-c1ccc(SC)c(=O)cc1[C@@H](NS(=O)(=O)c1ccccc1[N+](=O)[O-])CC2
SK-BR-3 [1]
  EC50: 0.0126 mg/L (≈ 0.0226 µM)
DU-145 [2]
  EC50: 0.0129 mg/L (≈ 0.0231 µM)
[3]
  pIC50: 5.96
A549 [4]
  EC50: 0.0209 mg/L (≈ 0.0374 µM)
KB
  EC50: 0.01 mg/L (≈ 0.0179 µM)
[5]
  EC50: 0.112 mg/L (≈ 0.2 µM)
HCT-8 [6]
  EC50: 0.027 mg/L (≈ 0.0483 µM)

## COc1cc2c(c(OC)c1OC)-c1ccc(SC)c(=O)cc1[C@@H](N(C)S(=O)(=O)c1ccccc1[N+](=O)[O-])CC2
SK-BR-3 [1]
  EC50: 0.0285 mg/L (≈ 0.0498 µM)
DU-145 [2]
  EC50: 0.0312 mg/L (≈ 0.0545 µM)
[3]
  pIC50: 6.04
A549 [4]
  EC50: 0.129 mg/L (≈ 0.225 µM)
KB
  EC50: 0.035 mg/L (≈ 0.0611 µM)
[5]
  EC50: 0.153 mg/L (≈ 0.266 µM)
HCT-8 [6]
  EC50: 0.12 mg/L (≈ 0.21 µM)

## CCN([C@H]1CCc2cc(OC)c(OC)c(OC)c2-c2ccc(SC)c(=O)cc21)S(=O)(=O)c1ccccc1[N+](=O)[O-]
SK-BR-3 [1]
  EC50: 0.148 mg/L (≈ 0.253 µM)
DU-145 [2]
  EC50: 0.163 mg/L (≈ 0.278 µM)
[3]
  pIC50: 5.38
A549 [4]
  EC50: 0.212 mg/L (≈ 0.361 µM)
KB
  EC50: 0.13 mg/L (≈ 0.222 µM)
[5]
  EC50: 0.174 mg/L (≈ 0.296 µM)
HCT-8 [6]
  EC50: 0.52 mg/L (≈ 0.886 µM)

## CCCN([C@H]1CCc2cc(OC)c(OC)c(OC)c2-c2ccc(SC)c(=O)cc21)S(=O)(=O)c1ccccc1[N+](=O)[O-]
SK-BR-3 [1]
  EC50: 0.616 mg/L (≈ 1.02 µM)
DU-145 [2]
  EC50: 0.357 mg/L (≈ 0.595 µM)
[3]
  pIC50: < 4.40
A549 [4]
  EC50: 1.63 mg/L (≈ 2.72 µM)
KB
  EC50: 0.96 mg/L (≈ 1.6 µM)
[5]
  EC50: 1.36 mg/L (≈ 2.27 µM)
HCT-8 [6]
  EC50: > 1 mg/L

## COc1cc2c(c(OC)c1O)-c1ccc(SC)c(=O)cc1[C@@H](N(C)S(=O)(=O)c1ccccc1[N+](=O)[O-])CC2
SK-BR-3 [1]
  EC50: 1.01 mg/L (≈ 1.81 µM)
DU-145 [2]
  EC50: 1.15 mg/L (≈ 2.06 µM)
[3]
  pIC50: 5.44
A549 [4]
  EC50: 1.68 mg/L (≈ 3.01 µM)
KB
  EC50: 0.72 mg/L (≈ 1.29 µM)
[5]
  EC50: 1.49 mg/L (≈ 2.67 µM)
HCT-8 [6]
  EC50: > 1 mg/L

## CN[C@H]1CCc2cc(OC)c(O)c(OC)c2-c2ccc(SC)c(=O)cc21
SK-BR-3 [1]
  EC50: 0.487 mg/L (≈ 1.31 µM)
DU-145 [2]
  EC50: 0.505 mg/L (≈ 1.35 µM)
[3]
  pIC50: < 4.40
A549 [4]
  EC50: 1.55 mg/L (≈ 4.14 µM)
KB
  EC50: 0.55 mg/L (≈ 1.47 µM)
[5]
  EC50: 1.38 mg/L (≈ 3.7 µM)

## CN[C@H]1CCc2cc(OC)c(OP(=O)(O)O)c(OC)c2-c2ccc(SC)c(=O)cc21
SK-BR-3 [1]
  EC50: 0.137 mg/L (≈ 0.302 µM)
DU-145 [2]
  EC50: 0.157 mg/L (≈ 0.347 µM)
[3]
  pIC50: < 4.40
A549 [4]
  EC50: 0.533 mg/L (≈ 1.18 µM)
KB
  EC50: 0.25 mg/L (≈ 0.551 µM)
[5]
  EC50: 1.71 mg/L (≈ 3.76 µM)
[15]
  solubility: 15 mg/mL (≈ 33100 µM)
HCT-8 [6]
  EC50: > 1 mg/L

## CN[C@H]1CCc2cc(OC)c(O)c(OC)c2-c2ccc(SC)c(=O)cc21.O=C(O)CCC(=O)O
SK-BR-3 [1]
  EC50: 0.39 mg/L
DU-145 [2]
  EC50: 0.342 mg/L
[3]
  pIC50: 4.64
A549 [4]
  EC50: 1.26 mg/L
KB
  EC50: 0.35 mg/L
[5]
  EC50: 1.35 mg/L
[15]
  solubility: 95 mg/mL
HCT-8 [6]
  EC50: > 1 mg/L

## COc1cc2c(c(OC)c1OC)-c1ccc(OC)c(=O)cc1[C@@H](NC(C)=O)CC2 [COLCHICINE]
SK-BR-3 [1]
  EC50: 0.0027 mg/L (≈ 0.00676 µM)
DU-145 [2]
  EC50: 0.0027 mg/L (≈ 0.00676 µM)
A549 [4]
  EC50: 0.0199 mg/L (≈ 0.0498 µM)
KB
  EC50: 0.0038 mg/L (≈ 0.00951 µM)
[5]
  EC50: 0.158 mg/L (≈ 0.395 µM)
HCT-8 [6]
  EC50: 0.054 mg/L (≈ 0.135 µM)
